Experimental data taken from patent publication US11147746B2, “Hydrophobic dental surfaces” (priority 2016, dated 2021).
No end group written: not given here.

Tests used:
[1] = Water contact angle (sessile drop) on peptide-coated dentin; assay type: physicochemical
From the text: The water contact angle (WCA) may be measured using the sessile drop method with deionized water as probe liquid. The sessile drop is the most common method for optical measurement of the contact angle using drop shape analysis. Measurement of the contact angle of a sessile drop that lies on the surface of a solid may be made with a contact angle goniometer, which allows measuring the contact angle visually by capturing the profile of a pure liquid on a solid substrate. The angle formed between the liquid-solid interface and the liquid-vapor interface is determined to be the water contact angle. A droplet is deposited by a syringe which is positioned above the sample surface, and a high-resolution camera may be used to capture the image from the profile or side view. The image may be analyzed using image analysis software. The measurement may be referred to as a static contact angle measurement. The change in WCA, or ΔWCA, is the difference between the average water contact angles after predetermined intervals of time, for example, 1 s and 21 s of drop contact with the tested surface, or the difference between the initial and the final water contact angles.
Water contact angles described according to the disclosure are with reference to the sessile drop technique, using a drop volume or 2-5 μL, for example, 3 μL. Similar or different values of WCA and ΔWCA for the same tested surfaces may be obtained using other methods to determine wettability of surfaces, such as the Wilhelmy method, or when using different drop volumes. In some examples, one or more of these or other techniques may be used to determine the WCA or ΔWCA.
The wettability of coated etched dentin with these peptides was evaluated in different conditions, for example, single or double GL13K coatings, rinsing with water or alcohol after coating, after deproteinization, with blow drying, alcohol drying, combinations of the two, or progressive alcohol drying after dentin etching, and using the same buffer solutions with or without peptides. Dynamic water contact angles (WCA) of water drops placed on the treated dentin surfaces were measured.
A drop of 3 μL of deionized water was dispensed using a contact angle meter (DCM-E1, Kyowa, Japan) on top of the dentin surfaces with and without treatments. Images of the drop were automatically taken with the camera of the contact angle meter every second for 21 s; i.e., until the shape of the drop on the surface was stable for all surfaces analyzed. The shape of the profile of the drop on the surface was then automatically identified by the equipment's software (Famas, Kyowa, Japan) and the contact angle between the liquid-solid interface and the liquid-vapor interface was determined. The reported WCA are average values at the end of the test; i.e., after 21 s the drop was in contact with the tested surface for at least 3 different drops in three different surfaces for each dentin treatment. ΔWCA is the difference between the average water contact angles after 1 s and 21 s of drop contact with the tested surface; i.e., the difference between the initial and the final water contact angles.
A de-proteinization step was used to remove demineralized/exposed collagen. […] A super-hydrophobic GL13K-coated dentin surface with water contact angles up to 100 was produced.

[2] = Saliva (enzyme) challenge of coated dentin, then WCA and acidic dye penetration; parameters: species or system bovine; conditions: saliva at 37° C. for three consecutive days
Description: Peptide-coated dentin samples were challenged with saliva, which includes enzymes. Bovine dentin slabs, prepared as discussed above with reference to EXAMPLE 2, were incubated in freshly collected and filtered saliva (thus exposed to biodegrading enzymes) at 37° C. for three consecutive days. The WCA was subsequently measured, and the samples were further immersed in acidic blue dye for 4 h. GL13K-coated dentin retained its hydrophobic character after the challenge, with average WCA=105°. FIG. 7A is a photograph showing a transverse cross-section of a tooth slab including enamel and dentin and treated with a buffer solution, exposed to saliva for three days, and subjected to an acidic blue dye.

[3] = dentin prepared with the deproteinized method, then coated (samples S12, S14, S16)
[4] = progressive dehydration protocol (increasing ethanol concentrations)

Row | Sequence | WCA [1, 3] | water contact angles ([1]; etching, wet de-proteinization with 5% NaOCl, coating without alcohol dehydration (Example 8)) | WCA [1, 4] | ΔWCA [1, 4] | WCA ([1]; single coating on etched dentin, alcohol rinse and blow drying) | WCA ([1]; single coating on etched dentin, water rinse and blow drying) | WCA ([1]; two coating treatments, rinsing with alcohol) | variation of water contact angle over time ([1]; with respect to the etched dentin) | average WCA after saliva challenge [2]
1 | GKIIKLKASLKLL [GL13K] | 85 ° | up to 100 | 120 ° | 4 ° | 55 ° | 70 ° | 100 ° | significantly reduced | 105 °
2 | VRLIVAVRIWRR [Sample 1018] | 84 ° |  |  |  |  |  |  |  | 
